Experimental data: patent US12617818B2, “Compositions and methods for modulating myosin subfragment-2 coiled coil stability and methods for using them” (UNIVERSITY OF NORTH TEXAS, priority 2020, dated 2026)

Tests used:
[1] = biological target: skeletal muscle myosin S2 peptide (MYH2) (Homo sapiens, UniProt Q9UKX2); test: GFS, uncoiling of skeletal myosin S2 peptide dimer; type: biochemical; set-up: host or cells: chemical synthesis; conditions: for Force required to uncoil S2 molecule: length 10 nm, in presence of the anti-S2 peptide, ± SEM
Text: (§1) 3-aminopropyltriethoxysilane, acetone, coupling buffer (0.01 M pyridine in water with pH 6.0), 5% glutaraldehyde, quenching solution (1 M glycine in water with pH 7.0), blocking buffer (0.01 M Tris, 0.1% sodium azide, 0.1% bovine serum albumin, 0.15 M sodium chloride, and 0.001 M ethylenediaminetetraacetic acid with pH 7.0), wash buffer (0.01 M Tris, 0.1% sodium azide, 0.15 M sodium chloride, and 0.001 M ethylenediaminetetraacetic acid with pH 7.0) low salt buffer (0.1 M potassium chloride, 0.02 M imidazole, 5 mM magnesium chloride, with pH 7.0), 1-ethyl-3-(3-dimethyaminopropyl) carbodiimide, N-hydroxysuccinamide, iodoacetamide-succinimidyl ester, 8M urea solution (50 mM imidazole and 0.1 mM tris (2-carboxyethyl) phosphine with pH 7.0) monodisperse silica beads, glass slides, glass coverslips, vacuum grease, rabbit skeletal myosin, purified actin (G-actin), 1 μM human β-cardiac myosin S2 peptide, 1 μM human β-cardiac mutants myosin S2 peptide (E930del and E924K), 1 μM human skeletal myosin S2 peptide, 1 μM human smooth myosin S2 peptide, stabilizer peptide, and destabilizer peptide. A light microscope with an objective lens of 10× was mounted on an alt-azimuthal mount. A digital video camera of Sony, XCD-V60 was replaced with the ocular lenses. Extension springs on steel bracket held the alt-azimuthal mount suspended.
(§2) Gravitational force spectroscopy (GFS), is a single molecule force spectroscopy that utilizes gravitational force to measure absolute length of a single molecule at the given force calculated by the density of the bead suspending the molecule. This technique was discovered and developed in Root lab, which measures the forces in piconewton and sub-piconewton levels. Other than absolute length of a molecule, GFS measures force range required to uncoil, stretch or extend the molecule yielding a force-distance profile for the suspended molecule. Besides that, based on the force-distance profile, number of amino acids within the molecule can be calculated. […] The GFS allowed to test the flexibility or stability of a single molecule of myosin S2 peptide and also for the S2 peptides treated with anti-S2 peptides. Flexibility of myosin S2 is not dependent on assembly myosin as a thick filament or myosin in its single molecule form. The flexibility of myosin S2 region was reported to be similar in single molecule form or myosin in a thick filament assembly thus it could be conceived that the changes seen on flexibility of myosin S2 in presence of anti-S2 peptides would correlate to changes in myosin S2 flexibility for myosin in a thick filament form (Singh et al., 2018). The schematic diagram of GFS is shown below (schematic diagrams of GFS which has two modes: (FIG. 15) free-fall mode, (FIG. 16) rotational mode.
Free fall mode, another measurement variant of GFS which allows the user to get a force distance profile on a single molecule experiencing the gravitational force. Free fall mode allows a variable force by the virtue of gravity to be exerted on a single molecule. The GFS setup, light microscope with mounted camera on spring on alt-azimuthal platform, can be dropped. The start of free-fall mode force applied to the bead is zero or close to zero. […] As the platform goes towards equilibrium, trace of the acceleration decays. During the free fall mode, GFS has a single molecule which is suspended within an immobile edge and mobile bead will now experience the variable force which would be calculated by the product of mass of the bead and the acceleration of the GFS.
The product of the GFS acceleration and the mass of the bead will provide a force trace for the single molecule tethered between the immobile edge and mobile bead. The image processing would provide distance trace for the single molecule experiencing the free fall by the GFS. When this force trace is aligned with distance trace will yield the extension or the stretch experience by the single molecule under variable forces. […]

[2] = biological target: T1, cardiac muscle myosin S2 peptide (MYH7) (Homo sapiens, UniProt P12883); test: Gravitational force spectroscopy (GFS), uncoiling of cardiac myosin S2 peptide dimer; type: biochemical; conditions: for Force required to uncoil S2 molecule: length 10 nm, in presence of the anti-S2 peptide, ± SEM
T1 construct: host or cells: chemical synthesis
T1 sequence (P12883 912-947 limits assumed): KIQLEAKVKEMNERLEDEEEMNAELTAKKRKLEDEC
Text: as §1, §2
GFS set up assembly contains a light microscope that is horizontally mounted on an alt-azimuthal which is suspended with help of extension springs on a steel bracket. To capture both images and videos of suspended molecule, a digital video camera has been placed instead of the ocular lenses. The molecule of interest is tethered between an immobile edge of glass coverslip placed on a glass slide and mobile silica or glass bead. Slide with the molecule of interest in inserted into the light microscope component of GFS. The bead with molecule of interest is imaged through the microscope and then oriented to the direction of gravity vector to allow the maximal gravitation force exerted on to the bead. GFS has two modes, one is called rotational mode or an equilibrium mode which measures the absolute length of a single molecule and the second one is called free fall mode which measures the force required to unwind, uncoil, stretch or extend the molecule of interest.
Free fall mode, another measurement variant of GFS which allows the user to get a force distance profile on a single molecule experiencing the gravitational force. […]

Chain of skeletal muscle myosin S2 peptide (MYH2) (Q9UKX2 918-953 limits assumed): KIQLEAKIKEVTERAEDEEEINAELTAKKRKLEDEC

Force required to uncoil S2 molecule [1]	Force required to uncoil S2 molecule ([1]; listed as destabilizer peptide)	decrease of force required to uncoil the coiled coil ([1]; vs absence of anti-S2 peptide)	Force required to uncoil S2 molecule [2]	Force required to uncoil S2 molecule ([2]; listed as destabilizer)	decrease of force required to uncoil the coiled coil ([2]; vs absence of anti-S2 peptide)	increase of force required to uncoil the coiled coil ([1]; vs absence of anti-S2 peptide)	Force required to uncoil S2 molecule ([2]; listed as stabilizer)	increase of force required to uncoil the coiled coil ([2]; vs absence of anti-S2 peptide)	SMILES
1.84E−01 ± 4.00E−02 pN	1.84×10^−1±4.00×10^−2 pN	2.45 times	4.36E−01 ± 3.30E−02 pN	4.36×10^−1±3.30×10^−2 pN	1.98 times				CSCC[C@H](NC(=O)[C@H](CCC(=O)O)NC(=O)[C@H](CCCNC(=N)N)NC(=O)[C@H](CCC(=O)O)NC(=O)[C@H](CC(=O)O)NC(=O)[C@H](CCC(=O)O)NC(=O)[C@H](CC(C)C)NC(=O)[C@H](CCCNC(=N)N)NC(=O)[C@H](CCC(=O)O)NC(=O)[C@H](CC(N)=O)NC(=O)[C@H](CCSC)NC(=O)[C@@H](N)CCC(=O)O)C(=O)N[C@@H](CCCCN)C(=O)N[C@@H](C)C(=O)N[C@@H](CCC(=O)O)C(=O)N[C@@H](CC(C)C)C(=O)N[C@H](C(=O)N[C@@H](C)C(=O)N[C@@H](CCCCN)C(=O)O)[C@@H](C)O [Destabilizer]
6.28E−01 ± 4.32E−02 pN			1.55E+00 ± 1.46E−01 pN			1.40 times	1.55±1.46×10^−1 pN	1.80 times	C[C@H](NC(=O)[C@H](CCCCN)NC(=O)[C@H](Cc1ccccc1)NC(=O)[C@H](CCCCN)NC(=O)[C@H](CCCCN)NC(=O)[C@H](CCCCN)NC(=O)[C@H](CCCCN)NC(=O)[C@H](CCCCN)NC(=O)[C@H](CCCCN)NC(=O)[C@H](CCCCN)NC(=O)[C@@H](N)CCCCN)C(=O)N[C@@H](CCCCN)C(=O)N[C@@H](CCCCN)C(=O)N[C@@H](CCCCN)C(=O)N[C@@H](CCCCN)C(=O)N[C@@H](CCCCN)C(=O)N[C@@H](CCCCN)C(=O)O [Stabilizer]
